Common to all, as to experiment: NCI tumour cell line growth inhibition, 48 h
For experiment [1], the system named is OVCAR-8.
The test system of experiment [2] is SK-MEL-28.
For experiment [3], the system named is Malme-3M.
Experiment [4] deals with UO-31.
In experiment [5] the test system is HCT-15.
For experiment [6], the system named is LOX IMVI.
For experiment [7], the system named is SNB-19.
Experiment [8] concerns COLO 205.
For experiment [9], the system named is Hs-578T.
Experiment [10] concerns SF-268.
Experiment [11] has as its system UACC-257.
The test system of experiment [12] is SN12C.
In experiment [13] the test system is SNB-75.
Experiment [14] concerns MOLT-4.
Experiment [15] deals with SF-295.
Experiment [16] relates to OVCAR-4.
The test system of experiment [17] is DU-145.
The test system of experiment [18] is T47D.
Experiment [19] has as its system U-251.
The subject of experiment [20] is NCI-H226.

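Test compounds were applied to cells in 96-well plates for 48 hours at 5 doses. GI50 is the concentration that inhibits growth by half.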 Activity calls are given as the source filed them. Cut-off read from the data, not from the text of the source: active = GI50 up to about 1.1 µM and inactive = higher. Where only a bound is given, the exact number is not on record here.

Consider eleven compounds from ChEMBL document CHEMBL1201862, “PubChem BioAssay data set” (2004).

For the compound `COc1cc(S(=O)(=O)Nc2ccc(-c3csc(N4C(=O)C(Cl)C4c4ccccc4)n3)cc2)ccc1Cl` (stereo unspecified), the GI50 in experiment [1] was 20.1 µM (inactive); in experiment [2], 66.5 µM (inactive); in [3], 22.3 µM (inactive); in experiment [4], 25 µM (inactive); in experiment [5], more than 100 µM; in [6], 2.14 µM (inactive). Moreover, the GI50 in experiment [7] is > 100 µM (inactive); in [8] it was 37.9 µM (inactive); in experiment [9], > 100 µM (inactive); in [10], 33.9 µM (inactive); in [11], 8.45 µM (inactive); in [12], 24.9 µM (inactive). The GI50 in [13] is 22.8 µM (inactive); in experiment [14], 27 µM (inactive); in [15] it was > 100 µM (inactive); in experiment [16], 52.6 µM (inactive); in [17], 16 µM (inactive); in [18], 28.4 µM (inactive).
`CC/C(=C\c1ccc(OC)cc1)c1ccc(OC)cc1`: the GI50 in [19] is > 100 µM (inactive); in experiment [1] it was > 100 µM (inactive); in experiment [3], 50.7 µM (inactive); in experiment [4], > 100 µM (inactive); in [5], 74 µM; in experiment [6], 70.6 µM (inactive). For the same compound, the GI50 in [7] was > 100 µM (inactive); in [8], > 100 µM (inactive); in experiment [9], > 100 µM (inactive); in experiment [10], > 100 µM (inactive); in experiment [11], 38.5 µM (inactive); in experiment [12] it was > 100 µM (inactive). Also, the GI50 in experiment [13] is > 100 µM (inactive); in experiment [14] it was 52.5 µM (inactive); in [15], 53.3 µM (inactive); in [16] it was > 100 µM (inactive); in [17], > 100 µM (inactive); in experiment [20], > 100 µM (inactive).
Turning to `O=C(NCCCN1CCN(CCCNC(=O)Nc2cccc3ccccc23)CC1)Nc1cccc2ccccc12`, the GI50 in experiment [19] was 5.46 µM (inactive); in [1] it was 18.7 µM (inactive); in [2] it was 14.4 µM (inactive); in experiment [3], 3.15 µM (inactive); in experiment [4], 16.6 µM (inactive); in [5], 16.6 µM. Besides, the GI50 in experiment [6] was 8.49 µM (inactive); in [7], 18.6 µM (inactive); in [8], 15.7 µM (inactive); in [9] it was 17.5 µM (inactive); in [10] it was 17.3 µM (inactive); in [11], 13.2 µM (inactive). The GI50 was 16.3 µM (inactive) in [12]; 15.5 µM (inactive) in experiment [13]; 13.9 µM (inactive) in experiment [15]; 25.4 µM (inactive) in experiment [16]; 16.9 µM (inactive) in experiment [17]; 13.2 µM (inactive) in [18].
Consider `COc1ccc(N2C(=O)C3ON(Cc4ccc(CC(N)=O)cc4)C(c4c5ccccc5c(C)c5ccccc45)C3C2=O)cc1` (stereo unspecified), for which the GI50 in experiment [19] is 22.8 µM (inactive); in experiment [1], 27 µM (inactive); in [2] it was > 100 µM (inactive); in [3], 35.8 µM (inactive); in experiment [4], 16.4 µM (inactive); in experiment [5], 17.1 µM. Also, the GI50 in experiment [6] is 26.4 µM (inactive); in [7], 27.9 µM (inactive); in experiment [9], 54.8 µM (inactive); in [10] it was 38.7 µM (inactive); in experiment [11] it was 17.6 µM (inactive); in [12] it was 33.7 µM (inactive). Further, the GI50 in experiment [13] is 14.4 µM (inactive); in [14], 2.2 µM (inactive); in experiment [15] it was 22 µM (inactive); in experiment [16] it was 13.6 µM (inactive); in experiment [17], 20.9 µM (inactive); in experiment [18], 17.6 µM (inactive).
`CC1(C)C2CC3C(C)(C2)C31c1cc(Cl)ccc1N` (stereo unspecified): the GI50 in [19] was 15.2 µM (inactive); in experiment [1], 15.1 µM (inactive); in experiment [2], 17.3 µM (inactive); in experiment [3] it was 7.53 µM (inactive); in [4], 13.9 µM (inactive); in experiment [5] it was 10.9 µM. The GI50 in experiment [6] is 13.6 µM (inactive); in [7] it was 18.9 µM (inactive); in experiment [8] it was 19.1 µM (inactive); in experiment [10], 13.8 µM (inactive); in experiment [11] it was 13.4 µM (inactive); in experiment [12], 14.4 µM (inactive). Further, the GI50 in experiment [13] is 11.9 µM (inactive); in experiment [14], 8.36 µM (inactive); in [15], 15.2 µM (inactive); in [16] it was 15.2 µM (inactive); in [17], 14 µM (inactive); in experiment [20] it was 17.8 µM (inactive). The GI50 in [18] was 12 µM (inactive).
`CCCCC1(O)CC2CC1C(C)C2(C)C` (stereo unspecified): the GI50 was > 100 µM (inactive) in experiment [19]; > 100 µM (inactive) in [1]; > 100 µM (inactive) in [2]; > 100 µM (inactive) in [3]; > 100 µM (inactive) in experiment [4]; more than 100 µM in experiment [5]. Besides, the GI50 in experiment [6] was > 100 µM (inactive); in [7], > 100 µM (inactive); in [8], > 100 µM (inactive); in experiment [9], 84.5 µM (inactive); in experiment [10] it was > 100 µM (inactive); in experiment [11] it was > 100 µM (inactive). Moreover, the GI50 in experiment [12] was > 100 µM (inactive); in [13], > 100 µM (inactive); in experiment [14], 93.3 µM (inactive); in experiment [15], > 100 µM (inactive); in [16] it was > 100 µM (inactive); in experiment [17], > 100 µM (inactive). In addition, the GI50 in [20] is > 100 µM (inactive).
As for `CCCNC1=C2C[C@@H](C)C[C@@H](OC)[C@@H](OC(=O)CCCN)[C@H](C)/C=C(\C)[C@@H](OC(N)=O)[C@H](OC)/C=C\C=C(/C)C(=O)NC(=CC1=O)C2=O`, the GI50 in [19] was 11.4 µM (inactive); in experiment [1] it was 20.7 µM (inactive); in [2], 17.6 µM (inactive); in experiment [3], 12.4 µM (inactive); in experiment [4], 19.2 µM (inactive); in [5], 21.5 µM. For the same compound, the GI50 in [6] was 16 µM (inactive); in [7], 14.6 µM (inactive); in experiment [8], 3.52 µM (inactive); in experiment [9], 25.6 µM (inactive); in [10], 15.3 µM (inactive); in experiment [12], 22.7 µM (inactive). Also, the GI50 in experiment [14] is 6.9 µM (inactive); in experiment [15], 18.7 µM (inactive); in experiment [16], 18.7 µM (inactive); in experiment [17], 12.1 µM (inactive); in experiment [20], 18.5 µM (inactive); in experiment [18], 12.7 µM (inactive).
On to `COC(=O)C1CCN(C(=O)OC(C)(C)C)CC1`, for which the GI50 in experiment [19] was > 100 µM (inactive); in experiment [1] it was > 100 µM (inactive); in [2], > 100 µM (inactive); in experiment [3], > 100 µM (inactive); in experiment [4], > 100 µM (inactive); in [5], more than 100 µM. The GI50 in experiment [6], in experiment [7], in experiment [8], in experiment [9], in [10] and in experiment [11] was > 100 µM (inactive) in each case. For the same compound, the GI50 in experiment [12], in experiment [13], in experiment [14], in [15], in experiment [16] and in [17] was > 100 µM (inactive) in each case. In addition, in [18], the GI50 was > 100 µM (inactive).
Regarding `C[C@]12CC[C@H](O)CC1=CC[C@@H]1[C@@H]2CC[C@]2(C)C(=N/N)/C(=N\O)C[C@@H]12`, the GI50 in [19] was 21.6 µM (inactive); in experiment [1], > 100 µM (inactive); in experiment [3], 27.1 µM (inactive); in experiment [4], > 100 µM (inactive); in [5], 3.94 µM; in [6] it was 57 µM (inactive). Besides, the GI50 in [7] is 35.2 µM (inactive); in [8] it was 40 µM (inactive); in experiment [10], 59.7 µM (inactive); in experiment [11], > 100 µM (inactive); in [12], > 100 µM (inactive); in experiment [13], 7.5 µM (inactive). The GI50 in experiment [14] is 16.4 µM (inactive); in [15] it was 35.1 µM (inactive); in experiment [16], 57.4 µM (inactive); in experiment [17], > 100 µM (inactive); in experiment [20] it was 74.3 µM (inactive); in experiment [18], > 100 µM (inactive).
As to `Oc1cc(N2CCCC2)ccc1/C=N/N1C(=S)N(c2ccccc2)C(=N\c2ccccc2)/C1=N/c1ccccc1`, the GI50 in [19] is 31.2 µM (inactive); in experiment [1], > 100 µM (inactive); in [2], > 100 µM (inactive); in experiment [3], > 100 µM (inactive); in [4], > 100 µM (inactive); in experiment [5], more than 100 µM. For the same compound, the GI50 in experiment [7] is 51.4 µM (inactive); in experiment [8] it was > 100 µM (inactive); in [9], 60.4 µM (inactive); in [10], > 100 µM (inactive); in experiment [11], > 100 µM (inactive); in [12], > 100 µM (inactive). For the same compound, the GI50 in experiment [14] was > 100 µM (inactive); in experiment [15], 94.4 µM (inactive); in [17], > 100 µM (inactive); in experiment [20], 58.6 µM (inactive); in experiment [18] it was > 100 µM (inactive).
On to `CC(=O)Oc1ccc(/C=C/C(=O)O[C@@H](C)[C@H](C)OC(=O)/C=C/c2ccc(OC(C)=O)c(OC(C)=O)c2)cc1OC(C)=O`, for which the GI50 was 17.1 µM (inactive) in [19]; 11.5 µM (inactive) in [1]; 15.3 µM (inactive) in experiment [2]; 22.9 µM (inactive) in experiment [3]; 5.94 µM (inactive) in experiment [4]; 6.31 µM in [5]. Further, the GI50 is 6.61 µM (inactive) in [6]; 18.9 µM (inactive) in experiment [7]; 29.5 µM (inactive) in [8]; 11 µM (inactive) in experiment [9]; 18.4 µM (inactive) in [10]; 18.7 µM (inactive) in [11]. For the same compound, the GI50 in experiment [12] was 19.6 µM (inactive); in [13], 20.1 µM (inactive); in [14], 2.22 µM (inactive); in experiment [15] it was 11.2 µM (inactive); in experiment [16] it was 28.7 µM (inactive); in [17] it was 21.9 µM (inactive). In addition, in experiment [18], the GI50 is 13 µM (inactive).
